{"source": "paper PMC10655131", "about": "(Journal of medicinal chemistry, 2021)", "key": {"HIV-1HXB2": {"test_system": "HIV-1HXB2", "assay_type": "cell-based", "conditions": "antiviral EC50 relative to best inhibitor (NBD-14189)"}, "recombinant HIV-1 RT [1]": {"test_system": "recombinant HIV-1 RT", "experiment": "colorimetric Reverse Transcriptase Assay", "assay_type": "biochemical"}, "TZM-bl cells": {"test_system": "TZM-bl cells", "conditions": "read-out: CC50 (cytotoxicity), XTT, three days; cited from earlier work"}, "recombinant HIV-1 RT [2]": {"test_system": "recombinant HIV-1 RT", "conditions": "read-out: IC50 (Anti-HIV RT enzyme inhibition activity); mean ± SD, n = 3; cited from earlier work"}}}
{"smiles": "NC[C@H](NC(=O)c1ccc(-c2ccc(C(F)(F)F)cc2)[nH]1)c1nc(CO)cs1", "note": "[NBD-14189]", "values": [{"measurement": "Fold-change from best inhibitor (EC50)", "setting": "HIV-1HXB2", "result": 1}, {"measurement": "Fold-change from best inhibitor (IC50)", "setting": "recombinant HIV-1 RT [1]; RT IC50 relative to best inhibitor (NBD-14189)", "result": 1}]}
{"smiles": "NC[C@@H](NC(=O)c1ccc(-c2ccc(C(F)(F)F)cn2)[nH]1)c1ncc(C(O)CO)s1", "note": "(some centres unmarked) [NBD-14306]", "values": [{"measurement": "CC50", "setting": "TZM-bl cells", "result": "> 113", "unit": "µM"}]}
{"smiles": "CC1(C)CC(NC(=O)C(=O)Nc2ccc(Cl)cc2)CC(C)(C)N1", "note": "[NBD-556]", "values": [{"measurement": "IC50", "setting": "recombinant HIV-1 RT [2]", "result": "> 200", "unit": "µM"}]}
{"smiles": "NC[C@@H](NC(=O)c1ccc(-c2ccc(Cl)c(F)c2)[nH]1)c1ncc(CO)s1", "note": "[NBD-14075]", "values": [{"measurement": "increase in the IC50 value", "setting": "recombinant HIV-1 RT [1]; 075 vs. 189 and 270", "result": "~ 10 fold"}]}
